US20220081446A1, “CRYSTAL FORM OF 1,2,3-TRIAZOLO[1,5-A]PYRAZINES DERIVATIVE AND PREPARATION METHOD FOR CRYSTAL FORM” (Jiangsu Hengrui Medicine Co., Ltd., priority 2019, published 2022)

Legend:
[1] = from PCT/CN2018/097170; cited from earlier work
HepG2 cells [2] = conditions: read-out: CC50 (proliferation inhibition), 72 hours, CellTiter-Glo
Protocol: HepG2 cells taken in logarithmic growth stage were prepared into the cell suspension through digestion with trypsin, and then the suspension was cultured with 6,000 cells/well in 96-well plate (96-well White/Clear Flat Bottom plate) under 5% carbon dioxide at 37° C. for 16-20 hours. On the second day, the compound was dissolved in pure DMSO with the concentration of 20 mM, and then the gradient dilution of the compound was carried out by using Automatic pipetting workstation (Bravo) with the dilution times of 3, where there were 8 concentration points for each compound, and the control well was DMSO; next, the compound with each concentration treated by DMSO was diluted 200 times using EMEM (containing 10% FBS) medium. The cell culture plate inoculated on the first day was taken out, and then the medium in the well plate was sucked out by using the negative pressure suction device. Into each well, the prepared medium containing each concentration of compound was added respectively, which was cultured with 100 μl/well at 37° C. for 72 hours. On the fifth day, the 96-well cell plate was taken out, and the freshly prepared CellTiter Glo was added into each well with 100 μL/well, left to stand for 5-10 minutes, sealed for the bottom of the 96-well plate with a white back cover film (PerkinElmer), placed into the Microplate Reader, and measured for the Luminescence signal by the reader.

HepG2 cells [3] = conditions: from PCT/CN2018/097170; cited from earlier work
[4] = tested on: HBV DNA replication in HepG2.2.15 cells; assay: In vitro anti-HBV activity test (quantitative analysis of intracellular HBV DNA); assay type: cell-based; conditions: HBV DNA by quantitative PCR
Excerpt: Test Example 1: In Vitro Anti-HBV Activity Test (Quantitative Analysis of Intracellular HBV DNA)
HepG2.2.15 cells were stable expression cell lines integrated with HBV genome, which can be secreted out of cells through replication, transcription, translation and packaging into virus particles with HBV DNA. In this study, the quantitative PCR method was used to quantitatively analyze the HBV DNA produced by the proliferation of HepG2.2.15 in vitro, thus determining the activity of the compounds in the present disclosure to inhibit HBV DNA replication through inhibiting the assembly of HBV capsid protein.
HepG2.2.15 cells were cultured in DMEM/high glucose medium (10% FBS, 400 μg/ml G418) and passaged every 3 days. On the day of experiment, fresh cell culture medium was used to prepare cell suspension, which was cultured with 40,000 cells/well in 96 well plate (Corning, #3599) under 5% carbon dioxide at 37° C. […] The extracted DNA was analyzed by HBV DNA quantitative PCR using Hepatitis B virus nucleic acid quantitative detection kit from Tepp biology, with the method specifically mentioned in the instructions of the kit. The quantitative standard curve was determined in parallel experiment using the own standard sample of the kit. Each sample was converted quantitatively based on the standard curve. […]

HBV capsid protein = HBV capsid protein (Hepatitis B virus genotype D subtype ayw, UniProt P03146); conditions: from PCT/CN2018/097170; cited from earlier work
Sequence of HBV capsid protein (P03146 whole entry): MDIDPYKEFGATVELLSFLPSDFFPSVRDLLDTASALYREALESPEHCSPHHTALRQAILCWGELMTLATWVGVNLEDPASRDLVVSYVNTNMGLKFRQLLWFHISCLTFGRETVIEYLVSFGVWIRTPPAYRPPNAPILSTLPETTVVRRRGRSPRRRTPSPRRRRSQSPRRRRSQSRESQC

[5] = Long term/accelerated stability; assay type: physicochemical
Protocol: The crystal form A (Example 5) was placed at 25° C., 60% RH and 40° C., 75% RH to investigate its stability

[6] = DVS (dynamic vapor sorption) hygroscopicity test; assay type: physicochemical
Protocol: According to the definition of hygroscopicity characteristics and hygroscopic weight gain in “9103 guiding principles for hygroscopicity of drugs” in the fourth volume of Chinese Pharmacopoeia (2015 Edition),
DVS indicates dynamic vapor sorption: the determination is carried out by SMS DVS Advantage at 25° C. with a humidity change of 50%-95%-0%-95%-50%, and the step of 10% (the last step is 5%) (The specific range of humidity is subject to the corresponding spectrum, and the methods listed here are those used in most cases), and the judgment standard is that dm/dt is not more than 0.02%.

[7] = Investigation of influencing factors (stability under heating, illumination, high humidity); assay type: physicochemical
Protocol: The sample of the crystal form A (Example 5) was spread out, and its stability was investigated under the conditions of heating (40° C., 60° C.), illumination (4500 Lux) and high humidity (RH 75%, RH 90%). The sampling was investigated over 30 days.

In the case of `C[C@H]1Cn2nnc(C(=O)N[C@H](C)C(F)(F)F)c2CN1C(=O)Nc1ccc(F)c(F)c1` [Compound B, (S)-N^5-(3,4-difluorophenyl)-6-methyl-N^3-((R)-1,1,1-trifluoropropan-2-yl)-6,7-dihydro-[1,2,3]triazolo[1,5-a]pyrazine-3,5(4H)-dicarbonamide], the bioavailability [1] is listed as “high”, the pharmacokinetic absorption [1] is listed as “good” and the CC50 (HepG2 cells [2]) is listed as greater than 100000 nM. The “effect on the proliferation inhibition of HepG2 cells in vitro” value (HepG2 cells [3]) was “no or little effect”, the “Emax (maximum inhibitory effect on HBV DNA replication)” value [4] was 100% and the EC50 ([4]; read-out: EC50 (inhibition of HBV DNA replication)) was 19 nM. The “inhibitory effect on the normal assembly of HBV capsid protein” value (HBV capsid protein) was “obvious inhibitory effect”.

For `C[C@H]1Cn2nnc(C(=O)N[C@H](C)C(F)(F)F)c2CN1C(=O)Nc1ccc(F)c(F)c1` [Crystal form A, (S)-N^5-(3,4-difluorophenyl)-6-methyl-N^3-((R)-1,1,1-trifluoropropan-2-yl)-6,7-dihydro-[1,2,3]triazolo[1,5-a]pyrazine-3,5(4H)-dicarbonamide], the Purity % ([5]; 25° C., 60% RH, 1 month) was 98.3%, the Purity % ([5]; 25° C., 60% RH, 2 months) was 98.3% and the Purity % ([5]; 25° C., 60% RH, 3 months) was 98.3%. The Purity % ([5]; 25° C., 60% RH, 6 months) was 98.3%, the Purity % ([5]; 25° C., 60% RH, start) was 98.3% and the Purity % ([5]; 40° C., 75% RH, 1 month) was 98.3%. It also gave a Purity % ([5]; 40° C., 75% RH, 2 months) of 98.3%, a Purity % ([5]; 40° C., 75% RH, 3 months) of 98.3% and a Purity % ([5]; 40° C., 75% RH, 6 months) of 98.2%. The Purity % ([5]; 40° C., 75% RH, start) was 98.3%, the “physical and chemical stability” value ([5]; stored for 6 months, long-term (25° C., 60% RH) and acceleration (40° C., 75% RH)) was “excellent physical and chemical stability” and the hygroscopicity class ([6]; 70% RH) was “no or little hygroscopicity”. The hygroscopicity class ([6]; 90% RH) was “slight hygroscopicity, or no/little hygroscopicity”, the “crystal form after DVS detection (XRPD)” value ([6]; before vs after DVS) was “remained unchanged” and the desorption process ([6]; humidity change from 0% to 95% RH) was “consistent with the adsorption process”. The hygroscopic weight gain ([6]; normal storage condition, 25° C. and 60% RH) was “about 0.07%”, the Color and character ([7]; 4500 Lux, day 5) was “white solid” and the Purity % ([7]; 4500 Lux, day 5) was 98.27%. The Color and character ([7]; 4500 Lux, day 10) was “white solid”, the Purity % ([7]; 4500 Lux, day 10) was 98.27% and the Color and character ([7]; 4500 Lux, day 30) was “white solid”. For the same molecule, the Crystal form ([7]; 4500 Lux, day 30) was “No changed”, the Purity % ([7]; 4500 Lux, day 30) was 98.30% and the Color and character ([7]; RH 75%, day 5) was “white solid”. The Purity % ([7]; RH 75%, day 5) was 98.26%, the Weight gain % ([7]; RH 75%, day 5) was 2.28% and the Color and character ([7]; RH 75%, day 10) was “white solid”. For the same molecule, the Purity % ([7]; RH 75%, day 10) was 98.29%, the Weight gain % ([7]; RH 75%, day 10) was 2.72% and the Color and character ([7]; RH 75%, day 30) was “white solid”. For the same molecule, the Crystal form ([7]; RH 75%, day 30) was “No changed”, the Purity % ([7]; RH 75%, day 30) was 98.29% and the Weight gain % ([7]; RH 75%, day 30) was 6.68%. The Color and character ([7]; RH 90%, day 5) was “white solid”, the Purity % ([7]; RH 90%, day 5) was 98.26% and the Weight gain % ([7]; RH 90%, day 5) was 2.93%. The Color and character ([7]; RH 90%, day 10) was “white solid”, the Purity % ([7]; RH 90%, day 10) was 98.28% and the Weight gain % ([7]; RH 90%, day 10) was 3.19%. The Color and character ([7]; RH 90%, day 30) was “white solid”, the Crystal form ([7]; RH 90%, day 30) was “No changed” and the Purity % ([7]; RH 90%, day 30) was 98.30%. For the same molecule, the Weight gain % ([7]; RH 90%, day 30) was 10.70%, the Color and character ([7]; heating 40° C., day 5) was “white solid” and the Purity % ([7]; heating 40° C., day 5) was 98.28%. For the same molecule, the Color and character ([7]; heating 40° C., day 10) was “white solid”, the Purity % ([7]; heating 40° C., day 10) was 98.31% and the Color and character ([7]; heating 40° C., day 30) was “white solid”. For the same molecule, the Crystal form ([7]; heating 40° C., day 30) was “No changed”, the Purity % ([7]; heating 40° C., day 30) was 98.32% and the Color and character ([7]; heating 60° C., day 5) was “white solid”. For the same molecule, the Purity % ([7]; heating 60° C., day 5) was 98.26%, the Color and character ([7]; heating 60° C., day 10) was “white solid” and the Purity % ([7]; heating 60° C., day 10) was 98.27%. For the same molecule, the Color and character ([7]; heating 60° C., day 30) was “white solid”, the Crystal form ([7]; heating 60° C., day 30) was “No changed” and the Purity % ([7]; heating 60° C., day 30) was 98.30%. For the same molecule, the “physical and chemical stability” value ([7]; illumination, 40° C., 60° C., high humidity 75% and 90%, storing for 30 days) was “good physical and chemical stability”, the Color and character ([7]; start, day 0) was “white solid” and the Purity % ([7]; start, day 0) was 98.30%.
